Measured values from patent US20240336565A1, “SOLID FORMS OF OSANETANT” (Acer Therapeutics, Inc., priority 2021, published 2024).
“Also recorded” adds a separate entry of the source. One block for each compound: values may come before it.

What was measured:
[1] = Solid form stability observations (scale up / polymorph work: drying, ambient conditions, aqueous media); format: physicochemical; settings: for form stability / re-hydration under ambient conditions: ambient conditions / room temperature and pressure
Procedure: Two anhydrous forms of the osanetant p-toluenesulfonic acid were synthesized. […] Form 6, described below, was a stable anhydrous form, but hydrated in water and aqueous solvent mixtures.
Advantageously, Form 1 (hydrate) and Form 6 (anhydrous) were stable on drying. Form 1 re-hydrated at room temperature and pressure after KF analysis, when it was heated in an oven to remove the water.
The experiment was cooled to 5° C. at a rate of 0.1° C./min and stirred at 5° C. for 18 h. The slurry was isolated be Buchner filtration: 42.5 mm Ø grade 1 Whatman filter paper; fast Filtration (<30 s); the cake was washed with 1 mL of ethyl acetate; the isolated solids were dried at 40° C. under vacuum for 72 h. […]

[2] = Comparative studies: 7-day stability; format: physicochemical; settings: for HPLC Impurity Content: 7 Day Stability
Procedure: Osanetant p-toluenesulfonic acid Form 1, osanetant benzene sulfonic acid Form 3, osanetant naphthalene-2-sulfonic acid Form 3, and osanetant phosphoric acid Form 7 were compared. Osanetant phosphoric acid Form 7 was obtained when preparation of osanetant phosphoric acid Form 4 was repeated and found to be not reproducible, and Form 7 was determined to be a mixture of hydrates).
Thus, osanetant benzene sulfonic acid salt Form 1 and osanetant p-toluene sulfonic acid salt Form 1 were identified as advantageous salts.

[3] = Thermodynamic solubility in water and pH buffers; settings: for Concentration: 24 h Solubility at 37° C.
[4] = Long term stability: base (2M NaOH) at ambient temperature; format: physicochemical; settings: 2M NaOH, dark, ambient, up to 14 days
Procedure: (§1) Osanetant p-toluenesulfonic acid Form 1 and osanetant benzenesulfonic acid Form 1 were tested for long-term stability across a number of different conditions, as detailed below.
(§2) Base at Ambient Temperature—Osanetant p-toluenesulfonic acid Form 1 and osanetant benzenesulfonic acid Form 1 were prepared at an osanetant content 10 times the normal working concentration then added to HPLC vials containing 2M NaOH and stored in the dark at ambient laboratory conditions. Samples were diluted to 2 mg/mL for analysis and were taken after T=1, 2, 4, 7, and 14 days storage. […] The purity of the resulting material is described in Table 44: […]

[5] = Long term stability: oxidation (6% H2O2) at ambient temperature; format: physicochemical; settings: 6% H2O2, dark, ambient, up to 14 days
Procedure: as §1
as §2, with “Oxidation” for “Base”, “Temperature-Osanetant” for “Temperature—Osanetant”, “6% H2O2” for “2M NaOH”, “46:” for “44:”

[6] = Long term stability: base (2M NaOH) at 60° C.; format: physicochemical; settings: 2M NaOH, 60° C., up to 14 days
Procedure: as §1
as §2, with “60° C.—Osanetant” for “Ambient Temperature—Osanetant”, “a darkened oven” for “the dark”, “60° C.” for “ambient laboratory conditions.”, “45:” for “44:”

[7] = Long term stability: oxidation (6% H2O2) at 60° C.; format: physicochemical; settings: 6% H2O2, 60° C., up to 14 days
Procedure: as §1
as §2, with “Oxidation” for “Base”, “60° C.—Osanetant” for “Ambient Temperature—Osanetant”, “6% H2O2” for “2M NaOH”, “a darkened oven” for “the dark”, “60° C.” for “ambient laboratory conditions.”, “47:” for “44:”

[8] = Salt screen: XRPD of isolated solids after drying at 40° C. and at 40° C./75% RH; format: physicochemical; settings: for XRPD after drying at 40° C./75% RH: after 40° C. drying, dried at 40° C./75% RH for about 24 h, label = form after 40° C. drying; for XRPD after drying at 40° C.: isolated solids dried at 40° C. for about 24 h, label = wet form
Procedure: To approximately 20 mg of amorphous lyophilized osanetant was added 0.3 mL of solvent for liquid counterion experiments. 0.2 mL of solvent was employed for solid counterion experiments. […] To the stirring mixture was then added 1.05 mol eq. of the appropriate counterion. Where solid counterions were used, the vial which contained the counterion was washed in to the osanetant containing vial with 0.1 mL of the appropriate solvent. Additional solvent was added where necessary. The experiments were thermally cycled as follows: heated from 25 to 40° C. at a rate of 0.1° C./min; 1 h at 40° C.; Cool to 5° C. at a rate of 0.1° C.; 1 h at 5° C.; 40° C. at a rate of 0.1° C./min; […] The crystallization experiments were thermally cycled overnight, then slurries were isolated by centrifugation. XRPD analysis was carried out on any isolated solids or gums. The XRPD plate, and the isolated solids, were then dried at 40° C. for about 24 h, and XRPD analysis was repeated. The XRPD plate was then dried at 40° C./75% RH for about 24 h and XRPD analysis was again repeated. All other samples were allowed to evaporated at ambient temperature and pressure.

[9] = Long term stability: acid stability (2M HCl) at ambient temperature; format: physicochemical; settings: 2M HCl, dark, ambient, up to 14 days
Procedure: as §1
as §2, with “Acid Stability” for “Base”, “Temperature-Osanetant” for “Temperature—Osanetant”, “HCl” for “NaOH”, “42:” for “44:”

[10] = Long term stability: thermal stability of solids at 60° C.; format: physicochemical; settings: solids, darkened oven at 60° C., up to 14 days
Procedure: as §1
Thermal stability of solids at 60° C.—Osanetant p-toluenesulfonic acid Form 1 and osanetant benzenesulfonic acid Form 1 were stored in a darkened oven at 60° C. in glass vials. Samples were taken after T=1, 2, 4, 7, and 14 days storage. […] The purity of the resulting material is described in Table 41: […]

SMILES: CC(=O)N(C)C1(c2ccccc2)CCN(CCC[C@]2(c3ccc(Cl)c(Cl)c3)CCCN(C(=O)c3ccccc3)C2)CC1.Cc1ccc(S(=O)(=O)O)cc1 [osanetant p-toluenesulfonic acid Form 6, (R)-N-(1-(3-(1-benzoyl-3-(3,4-dichlorophenyl)piperidin-3-yl)propyl)-4-phenylpiperidin-4-yl)-N-methylacetamide p-toluenesulfonic acid]
hydration / form conversion in water and aqueous solvent mixtures [1]: hydrated
form stability / re-hydration under ambient conditions [1]: stable
form on drying ([1]; drying (40° C. under vacuum where stated)): stable

SMILES: CC(=O)N(C)C1(c2ccccc2)CCN(CCC[C@]2(c3ccc(Cl)c(Cl)c3)CCCN(C(=O)c3ccccc3)C2)CC1.O=P(O)(O)O [osanetant phosphoric acid Form 7]
solid chemical stability ([2]; 7-day stability results, overall): Good and best chemical stability
solid form on 7-day stability ([2]; 7 days, elevated temperature where stated): loss in crystallinity at elevated temperature
disproportionation in buffer ([3]; pH 6.8 buffer): Disproportionation was observed

SMILES: CC(=O)N(C)C1(c2ccccc2)CCN(CCC[C@]2(c3ccc(Cl)c(Cl)c3)CCCN(C(=O)c3ccccc3)C2)CC1.Cc1ccc(S(=O)(=O)O)cc1 [pTSA Form 6]
HPLC Impurity Content ([2]; 40° C./75% RH): 0.11 % w/w
HPLC Impurity Content ([2]; 80° C.): 0.88 % w/w
HPLC Impurity Content ([2]; Ambient Light): 0.11 % w/w
Concentration ([3]; pH 1.2): 0.0458 mg/mL
Concentration ([3]; pH 4.5): 0.0630 mg/mL
Concentration ([3]; pH 6.8): 0.0356 mg/mL

SMILES: CC(=O)N(C)C1(c2ccccc2)CCN(CCC[C@]2(c3ccc(Cl)c(Cl)c3)CCCN(C(=O)c3ccccc3)C2)CC1.O=S(=O)(O)c1ccccc1 [osanetant benzenesulfonic acid Form 1, (R)-N-(1-(3-(1-benzoyl-3-(3,4-dichlorophenyl)piperidin-3-yl)propyl)-4-phenylpiperidin-4-yl)-N-methylacetamide benzenesulfonic acid]
degradation on storage (purity) [4]: lack of degradation
degradation on storage (purity) [5]: lack of degradation
degradation on storage (purity) [6]: lack of degradation
degradation on storage (purity) [7]: lack of degradation
XRPD after drying at 40° C./75% RH [8]: retained; also recorded: stable; also recorded: Form 1
XRPD after drying at 40° C. [8]: Form 1
degradation on storage (purity) [9]: lack of degradation
degradation on storage (purity) [10]: lack of degradation

SMILES: CC(=O)N(C)C1(c2ccccc2)CCN(CCC[C@]2(c3ccc(Cl)c(Cl)c3)CCCN(C(=O)c3ccccc3)C2)CC1.Cc1ccc(S(=O)(=O)O)cc1 [osanetant p-toluenesulfonic acid Form 5]
form stability / re-hydration under ambient conditions [1]: rehydrates to Form 1; also recorded: re-hydrated to Form 1; also recorded: hydrated at ambient conditions to Form 1

SMILES: CC(=O)N(C)C1(c2ccccc2)CCN(CCC[C@]2(c3ccc(Cl)c(Cl)c3)CCCN(C(=O)c3ccccc3)C2)CC1.O=P(O)(O)O [osanetant phosphoric acid Form 2, (R)-N-(1-(3-(1-benzoyl-3-(3,4-dichlorophenyl)piperidin-3-yl)propyl)-4-phenylpiperidin-4-yl)-N-methylacetamide phosphoric acid]
XRPD after drying at 40° C./75% RH [8]: converted to Pattern 4; also recorded: Form 4*
XRPD after drying at 40° C. [8]: Form 2

SMILES: CC(=O)N(C)C1(c2ccccc2)CCN(CCC[C@]2(c3ccc(Cl)c(Cl)c3)CCCN(C(=O)c3ccccc3)C2)CC1.O=S(=O)(O)c1ccccc1 [osanetant benzenesulfonic acid Form 2, (R)-N-(1-(3-(1-benzoyl-3-(3,4-dichlorophenyl)piperidin-3-yl)propyl)-4-phenylpiperidin-4-yl)-N-methylacetamide benzenesulfonic acid]
XRPD after drying at 40° C./75% RH [8]: converted to Pattern 1; also recorded: Form 1

XRPD after drying at 40° C./75% RH [8]: crystallinity was lost
XRPD after drying at 40° C. [8]: no change
SMILES: CC(=O)N(C)C1(c2ccccc2)CCN(CCCC2(c3ccc(Cl)c(Cl)c3)CCCN(C(=O)c3ccccc3)C2)CC1.O=C(O)C(O)C(O)C(=O)O [osanetant L-tartaric acid Form 2]
